The record followed here is ChEMBL document CHEMBL4627304, “DNA sequence-specific ligands. XVIII. Synthesis, physico-chemical properties; genetic, virological, and biochemical studies of fluorescent dimeric bisbenzimidazoles DBPA(n)” (Bioorg Med Chem, 2020).

Values after ≈ are worked out from the molar mass of the structure shown. Active and inactive are the calls of the source. The calls are words filed in the database; no cut-off is given here.

Broadly, the EC50 is the concentration needed to bring the measured effect to its halfway point. One may read the IC50 as the midpoint of a concentration-inhibition curve.

The subject of data set [1] is Calf thymus DNA. The data set can be described thus: Binding affinity to calf thymus DNA assessed as hyperchromic effect by UV-Vis spectroscopy. It is filed as nucleic-acid assay. The settings on record: Bos taurus.
The test system of data set [2] is Calf thymus DNA. The data set can be described thus: Binding affinity to calf thymus DNA assessed as appearance of positive band by cholesteric liquid crystal dispersion-based circular dichroism method. The data set is classed as nucleic-acid assay. The settings on record: Bos taurus.
Data set [3] deals with Aliivibrio fischeri. The data set can be described thus: Binding affinity to Aliivibrio fischeri H-NS dependent PluxC promoter assessed as luminescence intensity measured after 3 hrs by bioluminescence assay relative to control.
For data set [4], the system named is Aliivibrio fischeri. Put plainly: Binding affinity to Aliivibrio fischeri H-NS dependent Prf promoter assessed as luminescence intensity measured after 3 hrs by bioluminescence assay relative to control.
The subject of data set [5] is Aliivibrio logei. Put plainly: Binding affinity to Aliivibrio logei H-NS dependent Pr1 promoter assessed as luminescence intensity measured after 3 hrs by bioluminescence assay relative to control.
Data set [6] deals with Aliivibrio logei. The data set can be described thus: Binding affinity to Aliivibrio logei H-NS dependent Pr2 promoter assessed as luminescence intensity measured after 3 hrs by bioluminescence assay relative to control.
For data set [7], the system named is Human alphaherpesvirus 1. The data set can be described thus: Antiviral activity against Herpes simplex virus 1 infected in African green monkey vero cells assessed as reduction in plaque formation treated 1 hr post viral infection by plaque reduction assay. It is filed as functional, organism-based. The settings on record: Human alphaherpesvirus 1, Vero.
Data set [8] can be described thus: Selectivity index, ratio of CC50 for cytotoxicity against African green monkey Vero cells assessed as reduction in cell viability measured after 72 hrs by MTT assay to EC50 for antiviral activity against Herpes simplex virus 1 infected in African green monkey vero cells assessed as reduction in plaque formation treated 1 hr post viral infection. It is filed as toxicity, cell-based. The settings on record: read-out: Ratio CC50/EC50. A general note: Formazan colour is commonly taken as a measure of viable cells.

For data set [9], the target named is Human immunodeficiency virus type 1 integrase (Human immunodeficiency virus 1, UniProt Q7ZJM1). Put plainly: Inhibition of recombinant HIV1 integrase expressed in Escherichia coli Rosetta assessed as reduction in 3' end processing activity using [32P]-labelled U5B/U5A DNA as substrate measured after 2 hrs by polyacrylamide gel electrophoresis method.
Chain of Human immunodeficiency virus type 1 integrase (Q7ZJM1 whole entry): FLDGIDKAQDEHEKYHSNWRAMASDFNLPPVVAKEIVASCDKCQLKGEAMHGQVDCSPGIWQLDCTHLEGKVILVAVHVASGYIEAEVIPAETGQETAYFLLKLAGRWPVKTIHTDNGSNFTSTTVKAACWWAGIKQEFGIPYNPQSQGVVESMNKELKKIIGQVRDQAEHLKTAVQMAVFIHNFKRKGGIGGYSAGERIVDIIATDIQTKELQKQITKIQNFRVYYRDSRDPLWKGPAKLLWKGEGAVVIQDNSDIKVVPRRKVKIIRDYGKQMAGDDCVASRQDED
Data set [10] deals with HCT-116. The data set can be described thus: Cytotoxicity against human HCT116 cells assessed as reduction in cell viability by MTT assay. It is filed as cell-based.
Data set [11] can be described thus: Cytotoxicity against human NKE cells assessed as reduction in cell viability by MTT assay. The data set is classed as cell-based.
For data set [12], the system named is MCF7. Put plainly: Cytotoxicity against human MCF7 cells assessed as reduction in cell viability by MTT assay. It is filed as cell-based.
Data set [13] in a line: Drug penetration in human HCT116 cells nucleus at 200 uM measured after 2 days by fluorescence microscopy. The data set is classed as ADME, subcellular. Particulars: hct-116, 48 h.
Data set [14] in a line: Solubility of the compound in water. Particulars: buffer. It is filed as physicochemical.
The test system of data set [15] is Calf thymus DNA. Put plainly: Binding affinity to calf thymus DNA by fluorescence spectra analysis. The data set is classed as nucleic-acid assay. The settings on record: Bos taurus.
A short description of data set [16]: Selectivity index, ratio of CC50 for cytotoxicity against African green monkey Vero cells assessed as reduction in cell viability measured after 72 hrs by MTT assay to EC50 for antiviral activity against Herpes simplex virus 1 infected in African green monkey Vero cells assessed as reduction in plaque formation pretreated with compound for 1 hr followed by viral infection at 0.01 PFU/cells for 1 hr by plaque reduction assay. The data set is classed as toxicity, cell-based. Particulars: read-out: Ratio CC50/EC50.

Data set [17] has as its target T1, Transcriptional activator protein LuxR (Aliivibrio fischeri) (UniProt P12746).
T1 sequence (whole entry): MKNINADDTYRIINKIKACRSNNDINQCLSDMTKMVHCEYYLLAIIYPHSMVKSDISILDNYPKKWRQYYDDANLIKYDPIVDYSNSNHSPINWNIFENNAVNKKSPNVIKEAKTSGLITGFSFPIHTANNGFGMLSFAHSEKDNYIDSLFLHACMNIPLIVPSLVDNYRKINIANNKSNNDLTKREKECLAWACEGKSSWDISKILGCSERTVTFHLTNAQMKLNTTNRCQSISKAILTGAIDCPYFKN
The data set can be described thus: Inhibition of Aliivibrio fischeri LuxR quorum sensing system expressed in Escherichia coli MG1655 pVFR1 harboring Prf promoter assessed as reduction in LuxR transcriptional activity by measuring Lux gene expression in presence of LuxR protein activator and presence of 10^-6 M AHL by bioluminescence assay relative to control.

The target of data set [18] is T1, Transcriptional activator protein LuxR (Aliivibrio fischeri). Put plainly: Inhibition of Aliivibrio fischeri LuxR quorum sensing system expressed in Escherichia coli MG1655 pVFR1 harboring Prf promoter assessed as reduction in LuxR transcriptional activity by measuring Lux gene expression in presence of LuxR protein activator and presence of 10^-7 M AHL by bioluminescence assay relative to control.

The target is the same in data set [19]. The data set can be described thus: Inhibition of Aliivibrio fischeri LuxR quorum sensing system expressed in Escherichia coli MG1655 pVFR1 harboring Prf promoter assessed as reduction in LuxR transcriptional activity by measuring Lux gene expression in presence of LuxR protein activator and presence of 10^-8 M AHL by bioluminescence assay relative to control.

Data set [20] shares this target. The data set can be described thus: Inhibition of Aliivibrio fischeri LuxR quorum sensing system expressed in Escherichia coli MG1655 pVFR1 harboring Prf promoter assessed as reduction in LuxR transcriptional activity by measuring Lux gene expression in presence of LuxR protein activator and absence of AHL by bioluminescence assay relative to control.

Consider `CN(C)CCCNC(=O)c1ccc2nc(-c3ccc4nc(CNC(=O)CCCCN5CCN(CCCCC(=O)NCc6nc7ccc(-c8nc9ccc(C(=O)NCCCN(C)C)cc9[nH]8)cc7[nH]6)CC5)[nH]c4c3)[nH]c2c1`, for which the result in data set [1] and in data set [2] was Active. For the same compound, the Flu intensity in [3] was found to be 3500; in data set [4], 4300; in data set [5] it was 1000; in data set [6], 1800. Further, in data set [7], the EC50 came to 31 µg/mL (≈ 30 µM). The selectivity ratio at 72 h in data set [8] was determined as 34. The IC50 in data set [9] was 1.1 µM; in [10], greater than 500 µM; in data set [11] it was greater than 500 µM; in data set [12], greater than 500 µM. In addition, the Drug uptake entry in data set [13] is “Active”. For the same compound, the solubility result in data set [14] was “Soluble”.
`CN1CCN(c2ccc3nc(-c4ccc5nc(CNC(=O)CN6CCN(CC(=O)NCc7nc8ccc(-c9nc%10ccc(N%11CCN(C)CC%11)cc%10[nH]9)cc8[nH]7)CC6)[nH]c5c4)[nH]c3c2)CC1`: the IC50 in data set [9] is greater than 15 µM.
Consider `CN(C)CCCNC(=O)c1ccc2nc(-c3ccc4nc(CNC(=O)CCCN5CCN(CCCC(=O)NCc6nc7ccc(-c8nc9ccc(C(=O)NCCCN(C)C)cc9[nH]8)cc7[nH]6)CC5)[nH]c4c3)[nH]c2c1`, for which the result in data set [15] was Active. In addition, the Flu intensity in [3] amounted to 17000; in data set [4], 4400; in data set [5], 3300; in [6] it was 50000. Further, in [7], the EC50 was 15 µg/mL (≈ 14.9 µM). Also, the selectivity ratio at 72 h in data set [16] was determined as 95; in [8], 70. The IC50 was 1.8 µM in [9], greater than 500 µM in data set [10], greater than 500 µM in [11] and greater than 500 µM in [12]. In [13], the Drug uptake result is listed as “Active”. For the same compound, the solubility entry in data set [14] is “Soluble”.
Regarding `Nc1nc2c(ncn2COCCO)c(=O)[nH]1` [ACYCLOVIR], in data set [7], the EC50 turned out to be 1.2 µg/mL (≈ 5.33 µM). The selectivity ratio at 72 h in data set [16] is 86; in [8] it was 916.
Regarding `CN(C)CCCNC(=O)c1ccc2nc(-c3ccc4nc(CNC(=O)CCN5CCN(CCC(=O)NCc6nc7ccc(-c8nc9ccc(C(=O)NCCCN(C)C)cc9[nH]8)cc7[nH]6)CC5)[nH]c4c3)[nH]c2c1`, the outcome in [1], in data set [15] and in data set [2] was Active. For the same compound, the Flu intensity came out at 110000 in data set [3], 122000 in [4], 210000 in [5] and 150000 in [6]. Besides, the fold change (FC) in [17] was determined as 8; in data set [18] it was 3; in [19], 1; in data set [20] it was 27. The EC50 in data set [7] stood at 30 µg/mL (≈ 30.7 µM). The selectivity ratio at 72 h in [16] amounted to 703; in [8] it was 18. Besides, the IC50 was 2.6 µM in data set [9], greater than 300 µM in data set [10], greater than 300 µM in data set [11] and greater than 300 µM in [12]. In addition, the Drug uptake entry in data set [13] is reported as “Active”. For the same compound, the solubility result in data set [14] is on record as “Soluble”.
Turning to `CN1CCN(c2ccc3nc(-c4ccc5nc(CNC(=O)CCCCN6CCN(CCCCC(=O)NCc7nc8ccc(-c9nc%10ccc(N%11CCN(C)CC%11)cc%10[nH]9)cc8[nH]7)CC6)[nH]c5c4)[nH]c3c2)CC1`, the IC50 in data set [9] was determined as 3.9 µM.
For `CN(C)CCCNC(=O)c1ccc2nc(-c3ccc4nc(CN)[nH]c4c3)[nH]c2c1`, the EC50 in data set [7] is 27 µg/mL (≈ 69 µM). Also, the figures for the selectivity ratio at 72 h in data set [16] and in data set [8] were 11 and 35, respectively.
On to `CN(C)CCCNC(=O)c1ccc2nc(-c3ccc4nc(CNC(=O)CN5CCN(CC(=O)NCc6nc7ccc(-c8nc9ccc(C(=O)NCCCN(C)C)cc9[nH]8)cc7[nH]6)CC5)[nH]c4c3)[nH]c2c1`, for which the Flu intensity came to 38000 in data set [3], 4100 in data set [4], 1700 in data set [5] and 18000 in [6]. For the same compound, the EC50 in data set [7] is 16.7 µg/mL (≈ 17.6 µM). In addition, the selectivity ratio at 72 h in data set [16] amounted to 5750; in [8] it was 34. Further, the IC50 was 2.1 µM in data set [9], greater than 200 µM in [10], greater than 200 µM in [11] and greater than 200 µM in [12]. In addition, the Drug uptake result in [13] was “Active”. Further, in data set [14], the solubility entry is listed as “Soluble”.
On to `CN1CCN(c2ccc3nc(-c4ccc5nc(CNC(=O)CCN6CCN(CCC(=O)NCc7nc8ccc(-c9nc%10ccc(N%11CCN(C)CC%11)cc%10[nH]9)cc8[nH]7)CC6)[nH]c5c4)[nH]c3c2)CC1`, for which the IC50 in [9] stood at 7 µM.
The same measure, in the same setting: as for `CN1CCN(c2ccc3nc(-c4ccc5nc(CNC(=O)CCCN6CCN(CCCC(=O)NCc7nc8ccc(-c9nc%10ccc(N%11CCN(C)CC%11)cc%10[nH]9)cc8[nH]7)CC6)[nH]c5c4)[nH]c3c2)CC1`, the figure is 9.9 µM.
